From US20230398130A1, “METHODS AND COMPOSITIONS FOR DIFFERENTIATING STEM CELLS” (Massachusetts Institute of Technology, priority 2020, published 2023)
Where a name gives a salt, the structure may show the parent alone.

Key:
ISC-enriched organoids [1] = assay: Primary screen, 384-well 2.5-D organoid differentiation (ENR+CD, 6 days): basal lysozyme secretion (LYZ.NS); assay type: cell-based, murine; details: for Dose.FC.LYZ.NS (log 2 fold change): vs plate median; for SSMD.LYZ.NS: strictly standardized mean difference; for Dose.FC.LYZ.NS: FC vs plate median
Excerpt: (§1) High-throughput screening.

ISC-enriched organoids [2] = assay: Primary screen, 384-well 2.5-D organoid differentiation (ENR+CD, 6 days): carbachol-induced lysozyme secretion (LYZ.S); assay type: cell-based, murine; details: primary screen; for Dose.FC.LYZ.S (log 2 fold change): vs plate median; for Z.LYZ.S: standard z score; for SSMD.LYZ.S: strictly standardized mean difference; for Dose.FC.LYZ.S: FC vs plate median
Excerpt: as §1

ISC-enriched organoids [3] = assay: Primary screen, 384-well 2.5-D organoid differentiation (ENR+CD, 6 days, Target Selective Inhibitor Library, vs whole-plate median): ATP (CellTiter-Glo 3D, CTG); details: for Dose.FC.CTG (log 2 fold change): vs plate median; for SSMD.CTG: strictly standardized mean difference; for Dose.FC.CTG: FC vs plate median
[4] = primary screen, 1st of the 4 dose lines of the treatment (dose not given)
[5] = primary screen, 2nd of the 4 dose lines of the treatment (dose not given)
[6] = primary screen, 3rd of the 4 dose lines of the treatment (dose not given)
[7] = primary screen, 4th of the 4 dose lines of the treatment (dose not given)
[8] = 1st of the 4 dose lines of the treatment (dose not given)
[9] = 2nd of the 4 dose lines of the treatment (dose not given)
[10] = 3rd of the 4 dose lines of the treatment (dose not given)
[11] = 4th of the 4 dose lines of the treatment (dose not given)
[12] = Dose 0.08 uM, primary screen, standard z score
[13] = Dose 0.40 uM, primary screen, standard z score
[14] = Dose 2.00 uM, primary screen, standard z score
[15] = Dose 10.00 uM, primary screen, standard z score
[16] = Dose 0.08 uM, standard z score of FC
[17] = Dose 0.40 uM, standard z score of FC
[18] = Dose 2.00 uM, standard z score of FC
[19] = Dose 10.00 uM, standard z score of FC

CO[C@H]1C[C@@H]2CC[C@@H](C)[C@@](O)(O2)C(=O)C(=O)N2CCCC[C@H]2C(=O)O[C@H]([C@H](C)C[C@@H]2CC[C@@H](OP(C)(C)=O)[C@H](OC)C2)CC(=O)[C@H](C)/C=C(\C)[C@@H](O)[C@@H](OC)C(=O)[C@H](C)C[C@H](C)/C=C/C=C/C=C/1C [Ridaforolimus (Deforolimus, MK-8669)]
Z.LYZ.NS (standard z score) (ISC-enriched organoids [1]; Dose 0.08 uM, primary screen): 0.041
Dose.FC.LYZ.NS (log 2 fold change) (ISC-enriched organoids [1]; Dose 0.08 uM, primary screen): 0.005
Z.LYZ.NS (standard z score) (ISC-enriched organoids [1]; Dose 0.40 uM, primary screen): 1.012
Dose.FC.LYZ.NS (log 2 fold change) (ISC-enriched organoids [1]; Dose 0.40 uM, primary screen): 0.116
Z.LYZ.NS (standard z score) (ISC-enriched organoids [1]; Dose 2.00 uM, primary screen): 0.646
Dose.FC.LYZ.NS (log 2 fold change) (ISC-enriched organoids [1]; Dose 2.00 uM, primary screen): 0.074
Z.LYZ.NS (standard z score) (ISC-enriched organoids [1]; Dose 10.00 uM, primary screen): 0.237
Dose.FC.LYZ.NS (log 2 fold change) (ISC-enriched organoids [1]; Dose 10.00 uM, primary screen): 0.027
Dose.FC.LYZ.S (log 2 fold change) (ISC-enriched organoids [2]; Dose 0.08 uM): 0.050
Dose.FC.LYZ.S (log 2 fold change) (ISC-enriched organoids [2]; Dose 0.40 uM): 0.069
Dose.FC.LYZ.S (log 2 fold change) (ISC-enriched organoids [2]; Dose 2.00 uM): 0.019
Dose.FC.LYZ.S (log 2 fold change) (ISC-enriched organoids [2]; Dose 10.00 uM): 0.039
Z.CTG (standard z score) (ISC-enriched organoids [3]; Dose 0.08 uM, primary screen): 1.011
Dose.FC.CTG (log 2 fold change) (ISC-enriched organoids [3]; Dose 0.08 uM, primary screen): 0.423
Z.CTG (standard z score) (ISC-enriched organoids [3]; Dose 0.40 uM, primary screen): 0.157
Dose.FC.CTG (log 2 fold change) (ISC-enriched organoids [3]; Dose 0.40 uM, primary screen): 0.066
Z.CTG (standard z score) (ISC-enriched organoids [3]; Dose 2.00 uM, primary screen): 0.659
Dose.FC.CTG (log 2 fold change) (ISC-enriched organoids [3]; Dose 2.00 uM, primary screen): 0.276
Z.CTG (standard z score) (ISC-enriched organoids [3]; Dose 10.00 uM, primary screen): 0.505
Dose.FC.CTG (log 2 fold change) (ISC-enriched organoids [3]; Dose 10.00 uM, primary screen): 0.211

CCOC(=O)[C@H](CCc1ccccc1)N[C@@H](C)C(=O)N1C(=O)N(C)C[C@H]1C(=O)O [Imidapril HCl]
SSMD.LYZ.NS (ISC-enriched organoids [1]; [4]): −0.047
SSMD.LYZ.NS (ISC-enriched organoids [1]; [5]): 0.004
SSMD.LYZ.NS (ISC-enriched organoids [1]; [6]): 0.101
SSMD.LYZ.NS (ISC-enriched organoids [1]; [7]): −0.541
Z.LYZ.S (ISC-enriched organoids [2]; [8]): −0.274
Z.LYZ.S (ISC-enriched organoids [2]; [9]): 0.702
Z.LYZ.S (ISC-enriched organoids [2]; [10]): −0.226
Z.LYZ.S (ISC-enriched organoids [2]; [11]): −0.487
SSMD.LYZ.S (ISC-enriched organoids [2]; [8]): −0.269
SSMD.LYZ.S (ISC-enriched organoids [2]; [9]): 0.315
SSMD.LYZ.S (ISC-enriched organoids [2]; [10]): −0.262
SSMD.LYZ.S (ISC-enriched organoids [2]; [11]): −0.404
Z.CTG (ISC-enriched organoids [3]; [12]): −0.796
Z.CTG (ISC-enriched organoids [3]; [13]): −0.354
Z.CTG (ISC-enriched organoids [3]; [14]): −0.564
Z.CTG (ISC-enriched organoids [3]; [15]): −0.543
SSMD.CTG (ISC-enriched organoids [3]; [4]): −1.054
SSMD.CTG (ISC-enriched organoids [3]; [5]): −0.525
SSMD.CTG (ISC-enriched organoids [3]; [6]): −0.548
SSMD.CTG (ISC-enriched organoids [3]; [7]): −0.699

OCCn1cc(-c2cnc3nnn(Cc4ccc5ncccc5c4)c3n2)cn1 [PF-04217903]
Dose.FC.LYZ.NS (ISC-enriched organoids [1]; Dose 0.08 uM, primary screen): 0.085 log 2 fold change
Z.LYZ.NS (ISC-enriched organoids [1]; [16]): 0.742
Dose.FC.LYZ.NS (ISC-enriched organoids [1]; Dose 0.40 uM, primary screen): 0.161 log 2 fold change
Z.LYZ.NS (ISC-enriched organoids [1]; [17]): 1.404
Dose.FC.LYZ.NS (ISC-enriched organoids [1]; Dose 2.00 uM, primary screen): 0.122 log 2 fold change
Z.LYZ.NS (ISC-enriched organoids [1]; [18]): 1.060
Dose.FC.LYZ.NS (ISC-enriched organoids [1]; Dose 10.00 uM, primary screen): 0.071 log 2 fold change
Z.LYZ.NS (ISC-enriched organoids [1]; [19]): 0.617
Dose.FC.LYZ.S (ISC-enriched organoids [2]; Dose 0.08 uM): 0.110 log 2 fold change
Dose.FC.LYZ.S (ISC-enriched organoids [2]; Dose 0.40 uM): 0.265 log 2 fold change
Dose.FC.LYZ.S (ISC-enriched organoids [2]; Dose 2.00 uM): 0.049 log 2 fold change
Dose.FC.LYZ.S (ISC-enriched organoids [2]; Dose 10.00 uM): 0.127 log 2 fold change
Dose.FC.CTG (ISC-enriched organoids [3]; Dose 0.08 uM, primary screen): 0.136 log 2 fold change
Z.CTG (ISC-enriched organoids [3]; [16]): 0.326
Dose.FC.CTG (ISC-enriched organoids [3]; Dose 0.40 uM, primary screen): 0.258 log 2 fold change
Z.CTG (ISC-enriched organoids [3]; [17]): 0.616
Dose.FC.CTG (ISC-enriched organoids [3]; Dose 2.00 uM, primary screen): −0.051 log 2 fold change
Z.CTG (ISC-enriched organoids [3]; [18]): −0.122
Dose.FC.CTG (ISC-enriched organoids [3]; Dose 10.00 uM, primary screen): 0.116 log 2 fold change
Z.CTG (ISC-enriched organoids [3]; [19]): 0.276

COc1ccc(COc2ccc(Cc3cnc(N)nc3N)cc2OC)cc1 [GW2580]
Dose.FC.LYZ.NS (ISC-enriched organoids [1]; Dose 0.08 uM, primary screen): 0.006 log 2 fold change
Z.LYZ.NS (ISC-enriched organoids [1]; [12]): 0.056
Dose.FC.LYZ.NS (ISC-enriched organoids [1]; Dose 0.40 uM, primary screen): 0.014 log 2 fold change
Z.LYZ.NS (ISC-enriched organoids [1]; [13]): 0.118
Dose.FC.LYZ.NS (ISC-enriched organoids [1]; Dose 2.00 uM, primary screen): −0.060 log 2 fold change
Z.LYZ.NS (ISC-enriched organoids [1]; [14]): −0.525
Dose.FC.LYZ.NS (ISC-enriched organoids [1]; Dose 10.00 uM, primary screen): −0.018 log 2 fold change
Z.LYZ.NS (ISC-enriched organoids [1]; [15]): −0.158
Dose.FC.LYZ.S (ISC-enriched organoids [2]; Dose 0.08 uM): −0.013 log 2 fold change
Dose.FC.LYZ.S (ISC-enriched organoids [2]; Dose 0.40 uM): 0.020 log 2 fold change
Dose.FC.LYZ.S (ISC-enriched organoids [2]; Dose 2.00 uM): −0.060 log 2 fold change
Dose.FC.LYZ.S (ISC-enriched organoids [2]; Dose 10.00 uM): −0.026 log 2 fold change
Dose.FC.CTG (ISC-enriched organoids [3]; Dose 0.08 uM, primary screen): −0.042 log 2 fold change
Z.CTG (ISC-enriched organoids [3]; [12]): −0.101
Dose.FC.CTG (ISC-enriched organoids [3]; Dose 0.40 uM, primary screen): −0.284 log 2 fold change
Z.CTG (ISC-enriched organoids [3]; [13]): −0.678
Dose.FC.CTG (ISC-enriched organoids [3]; Dose 2.00 uM, primary screen): 0.029 log 2 fold change
Z.CTG (ISC-enriched organoids [3]; [14]): 0.068
Dose.FC.CTG (ISC-enriched organoids [3]; Dose 10.00 uM, primary screen): −0.038 log 2 fold change
Z.CTG (ISC-enriched organoids [3]; [15]): −0.091
